Legend:
Assay type in all cases: cell-based
[1] = target: T1, homomeric KV7.4 channel (KCNQ4) (Homo sapiens, UniProt P56696); experiment: Automated patch-clamp (Qube) counter-screening assay against KV7.4 channel; conditions: CHO-K1 cells expressing KV7.4; class by maximal shift in the Vhalf at 30 μM
T1 construct: host or cells: CHO-K1
From the text: Assessment of In Vitro Potency Against KV7.4 Channels
A counter-screening assay was also developed on the Qube against the homomeric KV7.4 channel (KCNQ4, Uniprot ID P56696). The cell line used was a stably transfected CHO-K1 with constitutive KV7.4 expression supplied by Charles River Laboratories.
CHO-K1 cells stably expressing KV7.4 channels were maintained in the following culture media: • Hams F-12 with GlutaMAX™ (Life Technologies 31765027), • 10% Fetal clone 2 serum (Perbio Science SH30066.03), and • 250 μg/ml Geneticin™ selective antibiotic (G418, Invitrogen 1013-027).
(§1) Cell maintenance, preparation, recording conditions and voltage protocols were all identical to those above.
(§2) Analysis of Data for Assessment of Potency
(§3) 10 concentrations of test compounds were applied to individual wells in quadruplicate to assess potency as a 1 in 3 dilution series from the maximal concentration of 30 μM. The average shift in the voltage for half activation (Vhalf) for each concentration was used to generate concentration-response curves fitted with a 4-parameter logistic model to estimate the EC50 from the point of inflection of the curve and the maximal shift in the Vhalf from the top of the curve.
(§4) The lower the EC50 value, the higher the potency of the analyzed compound. The selectivity criteria is assigned on the basis of the maximal shift in the Vhalf at 30 μM. […] In Table 3, ND means that selectivity was not determined.

[2] = target: T2, heteromeric KV7.3/KV7.5 channel (KCNQ3, KCNQ5) (Homo sapiens, UniProt O43525+Q9NR82); experiment: Automated patch-clamp counter-screening against KV7.3/KV7.5 channel; conditions: HEK293 cells expressing Kv7.3/KV7.5; class by maximal shift in the Vhalf at 30 μM
T2 construct: host or cells: HEK293
Protocol: Assessment of in vitro potency against KV7.3/KV7.5 channels
Counter-screening was also carried out against the heteromeric KV7.3/KV7.5 channel (KCNQ3, Uniprot ID 043525; KCNQ5, Uniprot ID Q9NR82). The cell line used was a stably transfected HEK293 cell line with constitutive Kv7.3 expression and tetracycline inducible KV7.5 expression supplied by Charles River Laboratories.
Cells were maintained in the following culture media: • DMEM/F-12 with GlutaMAX™ (Life Technologies 31331-028), • 10% Tet Systems FCS (Clonetech 631106), • 500 μg/ml Geneticin™ selective antibiotic (G418, Invitrogen 1013-027), • 5 μg/ml Blasticidin S HCl (InvivoGen ant-bl-5), and • 100 μg/ml Zeocin (InvivoGen: ant-zn-5).
as §1, §2, §3, §4

[3] = target: T3, heteromeric KV7.2/KV7.3 channels (KCNQ2, KCNQ3) (Homo sapiens, UniProt O43525+O43526); experiment: Automated patch-clamp (Sophion Qube 384) potency assay against KV7.2/KV7.3 channels; conditions: CHO-K1/Kv7.2/Kv7.3 cells; for EC50: EC50 from concentration-response of shift in Vhalf, 10 concentrations up to 30 μM, read-out: Kv7.2/7.3 EC50; for Kv7.2/7.3 ΔV1/2: maximal shift in the Vhalf from the top of the curve
T3 construct: expressed in transfected cells; host or cells: CHO-K1
How it was run: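 Whole-cell automated patch clamp on CHO-K1 cells stably expressing human KV7.2/KV7.3, held at −80 mV; I-V steps −100 to +20 mV (1 s) with 0 mV tail pulses, Boltzmann-fitted activation curves. Ten concentrations (1:3 from 30 μM, quadruplicate) versus 0.3% DMSO control; EC50 and maximal shift from 4-parameter fits of Vhalf shift.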

Compound | EC50 [3] [nM] | Kv7.2/7.3 ΔV1/2 [3] [mV] | Kv7.4 selectivity criteria [1] | Kv7.3/7.5 selectivity criteria [2]
O=C(NCCC1(C(F)(F)F)CC1)NCc1ccnc(OCCF)c1 [Compound 17, 1-((2-(2-Fluoroethoxy)pyridin-4-yl)methyl)-3-(2-(1-(trifluoromethyl)cyclopropyl)ethyl)urea] | 5450 | 28.27 | A (Selective compounds showed Kv7.4 and/or Kv7.3/7.5 ΔV1/2 equal to or lower than 15 mV (letter A in table 3)) | A (Selective compounds showed Kv7.4 and/or Kv7.3/7.5 ΔV1/2 equal to or lower than 15 mV (letter A in table 3))
O=C(NCCC1(C(F)(F)F)CC1)NCc1ccnc(OCC(F)F)c1 [Compound 18, 1-((2-(2,2-Difluoroethoxy)pyridin-4-yl)methyl)-3-(2-(1-(trifluoromethyl)cyclopropyl)ethyl)urea] | 649 | 24.69 | A (Selective compounds showed Kv7.4 and/or Kv7.3/7.5 ΔV1/2 equal to or lower than 15 mV (letter A in table 3)) | A (Selective compounds showed Kv7.4 and/or Kv7.3/7.5 ΔV1/2 equal to or lower than 15 mV (letter A in table 3))
O=C(NCCC1(C(F)(F)F)CC1)NCc1ccnc(OCc2ccccc2F)c1 [Compound 19, 1-((2-((2-Fluorobenzyl)oxy)pyridin-4-yl)methyl)-3-(2-(1-(trifluoromethyl)cyclopropyl)ethyl)urea] | 263 | 23.76 | A (Selective compounds showed Kv7.4 and/or Kv7.3/7.5 ΔV1/2 equal to or lower than 15 mV (letter A in table 3)) | A (Selective compounds showed Kv7.4 and/or Kv7.3/7.5 ΔV1/2 equal to or lower than 15 mV (letter A in table 3))
O=C(NCCC1(C(F)(F)F)CC1)NCc1ccnc(OCC2(F)CC2)c1 [Compound 22, 1-((2-((1-Fluorocyclopropyl)methoxy)pyridin-4-yl)methyl)-3-(2-(1-(trifluoromethyl)cyclopropyl)ethyl)urea] | 1940 | 27.07 | A (Selective compounds showed Kv7.4 and/or Kv7.3/7.5 ΔV1/2 equal to or lower than 15 mV (letter A in table 3)) | A (Selective compounds showed Kv7.4 and/or Kv7.3/7.5 ΔV1/2 equal to or lower than 15 mV (letter A in table 3))
O=C(NCCC1(C(F)(F)F)CC1)NCc1ccnc(OCc2ccccn2)c1 [Compound 23, 1-((2-(Pyridin-2-ylmethoxy)pyridin-4-yl)methyl)-3-(2-(1-(trifluoromethyl)cyclopropyl)ethyl)urea] | 4750 | 18.69 | A (Selective compounds showed Kv7.4 and/or Kv7.3/7.5 ΔV1/2 equal to or lower than 15 mV (letter A in table 3)) | A (Selective compounds showed Kv7.4 and/or Kv7.3/7.5 ΔV1/2 equal to or lower than 15 mV (letter A in table 3))
O=C(NCCC1(C(F)(F)F)CC1)NCc1ccnc(OCC2(F)COC2)c1 [Compound 24, 1-((2-((3-Fluorooxetan-3-yl)methoxy)pyridin-4-yl)methyl)-3-(2-(1-(trifluoromethyl)cyclopropyl)ethyl)urea] | 11000 | 17.14 | A (Selective compounds showed Kv7.4 and/or Kv7.3/7.5 ΔV1/2 equal to or lower than 15 mV (letter A in table 3)) | A (Selective compounds showed Kv7.4 and/or Kv7.3/7.5 ΔV1/2 equal to or lower than 15 mV (letter A in table 3))
O=C(NCCC1(C(F)(F)F)CC1)NCc1ccnc(OCc2ccc(F)cc2F)c1 [Compound 25, 1-((2-((2,4-Difluorobenzyl)oxy)pyridin-4-yl)methyl)-3-(2-(1-(trifluoromethyl)cyclopropyl)ethyl)urea] | 400 | 25.77 | A (Selective compounds showed Kv7.4 and/or Kv7.3/7.5 ΔV1/2 equal to or lower than 15 mV (letter A in table 3)) | A (Selective compounds showed Kv7.4 and/or Kv7.3/7.5 ΔV1/2 equal to or lower than 15 mV (letter A in table 3))
O=C(NCCC1(C(F)(F)F)CC1)NCc1cc(OCc2ccc(F)cc2)nc(N2CCOCC2)c1 [Compound 27, 1-((2-((4-Fluorobenzyl)oxy)-6-morpholinopyridin-4-yl)methyl)-3-(2-(1-(trifluoromethyl)cyclopropyl)ethyl)urea] | 8020 | 18.22 | B (Non-selective compounds showed Kv7.4 and/or Kv7.3/7.5 ΔV1/2 higher than 15 mV (letter B in table 3)) | B (Non-selective compounds showed Kv7.4 and/or Kv7.3/7.5 ΔV1/2 higher than 15 mV (letter B in table 3))
O=C(NCc1ccnc(OCC(F)(F)F)c1)NCC1CCCCC1 [Compound 36, 1-(Cyclohexylmethyl)-3-((2-(2,2,2-trifluoroethoxy)pyridin-4-yl)methyl)urea] | 435 | 31.09 | A (Selective compounds showed Kv7.4 and/or Kv7.3/7.5 ΔV1/2 equal to or lower than 15 mV (letter A in table 3)) | A (Selective compounds showed Kv7.4 and/or Kv7.3/7.5 ΔV1/2 equal to or lower than 15 mV (letter A in table 3))

The next lines start with results.

EC50 [3] [nM] | Kv7.2/7.3 ΔV1/2 [3] [mV] | Compound | Kv7.4 selectivity criteria [1] | Kv7.3/7.5 selectivity criteria [2]
689 | 29.4 | CC(F)(F)COc1cc(CNC(=O)NCCC2(C(F)(F)F)CC2)ccn1 [Compound 20, 1-((2-(2,2-Difluoropropoxy)pyridin-4-yl)methyl)-3-(2-(1-(trifluoromethyl)cyclopropyl)ethyl)urea] | A (Selective compounds showed Kv7.4 and/or Kv7.3/7.5 ΔV1/2 equal to or lower than 15 mV (letter A in table 3)) | A (Selective compounds showed Kv7.4 and/or Kv7.3/7.5 ΔV1/2 equal to or lower than 15 mV (letter A in table 3))
1800 | 14.76 | O=C(NCCC1(C(F)(F)F)CC1)NC1CCCc2cnc(OCC(F)(F)F)cc21 (centres unmarked) [Compound 21, 1-(3-(2,2,2-Trifluoroethoxy)-5,6,7,8-tetrahydroisoquinolin-5-yl)-3-(2-(1-(trifluoromethyl)cyclopropyl)ethyl)urea] | B (Non-selective compounds showed Kv7.4 and/or Kv7.3/7.5 ΔV1/2 higher than 15 mV (letter B in table 3)) | B (Non-selective compounds showed Kv7.4 and/or Kv7.3/7.5 ΔV1/2 higher than 15 mV (letter B in table 3))
5140 | 31.67 | O=C(NCCC1(C(F)(F)F)CC1)NCc1cc(OCC(F)(F)F)nc(N2CCOCC2)c1 [Compound 26, 1-((2-Morpholino-6-(2,2,2-trifluoroethoxy)pyridin-4-yl)methyl)-3-(2-(1-(trifluoromethyl)cyclopropyl)ethyl)urea] | B (Non-selective compounds showed Kv7.4 and/or Kv7.3/7.5 ΔV1/2 higher than 15 mV (letter B in table 3)) | A (Selective compounds showed Kv7.4 and/or Kv7.3/7.5 ΔV1/2 equal to or lower than 15 mV (letter A in table 3))
3080 | 25.36 | O=C(NCCC1(C(F)(F)F)CC1)NCc1cccc(OCC(F)(F)F)n1 [Compound 31, 1-((6-(2,2,2-Trifluoroethoxy)pyridin-2-yl)methyl)-3-(2-(1-(trifluoromethyl)cyclopropyl)ethyl)urea] | A (Selective compounds showed Kv7.4 and/or Kv7.3/7.5 ΔV1/2 equal to or lower than 15 mV (letter A in table 3)) | B (Non-selective compounds showed Kv7.4 and/or Kv7.3/7.5 ΔV1/2 higher than 15 mV (letter B in table 3))
649 | 38.22 | O=C(NCc1ccnc(OCC(F)(F)F)c1)NCC1(C(F)(F)F)CC1 [Compound 35, 1-((2-(2,2,2-Trifluoroethoxy)pyridin-4-yl)methyl)-3-((1-(trifluoromethyl)cyclopropyl)methyl)urea] | B (Non-selective compounds showed Kv7.4 and/or Kv7.3/7.5 ΔV1/2 higher than 15 mV (letter B in table 3)) | B (Non-selective compounds showed Kv7.4 and/or Kv7.3/7.5 ΔV1/2 higher than 15 mV (letter B in table 3))
